From PMC12851007 (Angewandte Chemie (International Ed. in English), 2025)
Where a SMILES comes first, the peptide text is derived from it.

What was measured:
[1] = CF dye efflux assay, EYPC vesicles; format: biochemical; details: 97 mM NaCl, pH 7.5, 25 °C, n = 1; for Y30µM, membrane activity, CF assay: 30 µM peptide, 25 µM EYPC⸧CF-LUVs (inside 50 mM CF) in 10 mM Hepes, fluorescence λexc 492/λem 517 nm, peptide at 60 s, TX-100 at 600 s, fractional activity
Source text: Time-dep endent fluores cence intensit y traces, I (t), were subsequentl y normalized to fractional intensities, If(t), using equation (1). Therein, I 0 is the intensity just before addition of peptide and I ∞ is the constant intensit y after addition of the calibration cockt ail.
IIf (tt ) = II (tt )−II0II∞ − II0 (1)
The concentration-dependent fractional intensities just before the addition of the calibration cocktail, If, were then normalized to fractional membrane activities, Y, using equation (2).
Therein, If,0 is the fractional intensit y just before addition of the calibration cocktail in absence of peptide and I f,∞ is the constant fractional intensity after addition of the calibration cocktail.
YY = IIf − IIf,0IIf,∞ − IIf,0 (2)
The fractional membrane activities, Y, were subsequently plotted against the peptide concentration, c, and analysed using the Hill equation (3) to obtain the effective molar concentration, EC50, and the Hill coefficient, n. Y0 and Y ma x are the fractional membrane activities in absen ce o f p eptide and at max imal peptide concent rations. For peptides with too little activity to determine Y ma x ex perimentall y, Y max was fixed at 1.0 during fitting.
YY = YY0 + YYmax − YY0nn (3)
Vesicle preparation. 100 µ L of a solution of 25 mg/ml of POPC in chloroform or 200 µ L of a solution of 25 mg/ml of EYPC in chloroform was purged with a stream of nitrogen and dried overnight under high vacuum. The thin lipid film was reh ydrated with 1ml of reh yd ration buffer (= inside buffer, see Table S3 ) b y agitation at room temperature for 30 min and then subjected to 5 freeze- thaw cycles (freezing in liquid nitrogen and thawing at 40 °C).
Subsequently, the liposome suspension was extruded ≥ 15 times through a polycarbonate membrane (pore size 100 nm). Extravesicular components were then removed by size exclusion chromatography using a 1.5 × 12 cm polyprop ylene column (Bio- Rad, German y) with 1.0 g Sephad ex G-50 (medium) as a stationa r y ph ase and the resp ectiv e outside buffer for […]
Ta b l e S 3. Combinations of inside and outside buffer for CF -LUVs.
No. Lipid Inside buffer = rehydration buffer Outside buffer
(1) EYPC 10 mM Hepes, 50 mM CF, pH 7.5 10 mM Hepes, 97 mM NaCl, pH 7.5
(2) POPC 10 mM Hepes, 50 mM CF, pH 7.5 10 mM Hepes, 97 mM NaCl, pH 7.5
(3) POPC 10 mM Hepes, 50 mM CF, pH 7.5 10 mM Hepes, 175 mM glucose, pH 7.5 [a] [a] Glucose b uffers (183 mOsm/L at 25 °C) were used within one week after preparation.
Vesicle quality control. The size distribution of the liposomes was confirmed by DLS to be unimodal and avera ge ve sicles diameters wer e in the ran ge from 115 to 130 nm. The final lipid content in the liposome s uspension after prep ar ation and sep aration w as det ermined b y NMR. CF vesicles are comparabl y leak y and cont ain minor amounts of ex travesi cular CF after a f ew days. When the fluores cence chan ge after vesicl e lys is b y addition of 20 µ L 1.6% (wt/vol) TX-100 was less than a factor of four, the vesicle suspension was no longer used.
Assay protocol. An appropriate volume of the liposome stock solutions was diluted to 2 mL with outside buffer in a 10 ×10 mm quartz glass cuvette to afford a phospholipid concentration of 25 µM. […] Subsequentl y, the time-dependent change in fluorescence intensity (C F: λ exc = 492 nm, λ em = 517 nm) was recorded during addition of 20 µL peptide stock solution of var ying concentrations at 60 s and 20µ L of a calibration cocktail (1. 6% […]

[2] = Dual-channel assay, CX4/LCG channel, POPC/POPS vesicles; format: in vitro ADME; details: 12.5 µM POPC/POPS(9:1)⸧CX4/LCG-LUVs and 12.5 µM POPC/POPS(9:1)⸧CF-LUVs in 10 mM Hepes, 175 mM glucose, pH 7.5; error = SD of fit, n = 1
Source text: Ultimately, we have also tested the new conditions with vesicles containing the anionic lipid 1‐palmitoyl‐2‐oleoyl‐phosphatidylserine (POPS) with TP10, Pep‐1, and the LRLLRW peptide (Figures S41–S43 and Table S11). The results confirmed that the absolute activity as well as the difference between the CF dye efflux assay and the tandem membrane assay was nearly unaffected by the presence of 10% POPS with the only exception that the membrane‐translocating ability of TP10 was enhanced.
Assay protocol. An appropriate volume of the liposome stock solutions was diluted to 2 mL with outside buffer in a 10 ×10 mm quartz glass cuvette to afford a phospholipid concentration of 25 µM. The cuvette was placed into a thermostatted fluorimeter sample holder and gentl y stirred at 300 rpm at (25.0± 0.1) °C. Subsequentl y, the time-dependent change in fluorescence intensity (C F: λ exc = 492 nm, λ em = 517 nm) was recorded during addition of 20 µL peptide stock solution of var ying concentrations at 60 s and 20µ L of a calibration cocktail (1. 6% […]
Time-dep endent fluores cence intensit y traces, I (t), were subsequentl y normalized to fractional intensities, If(t), using equation (1) and the concentration- dependent fractional intensities just before the addition of th e calibration co cktail, I f, w ere then normaliz ed to fr actional membran e activities, Y, using equation (2). The fractional membrane activities, Y, were subsequently plotted against the peptide concentration, c, and anal ysed using the Hill equation (3) to obtain the effective molar concentration, EC 50, and the Hill coefficient, n. For peptides with too low activity to determine Y max ex perimentall y, Y max was fixed at 1.0 during fitting. […]
Dual-Channel Measurements
Vesicles w ere prep ared a s described abov e (se e en try (4) in Table S2 and entry (3) in Table S3) and eluted with freshl y prepared 10 mM Hepes, 175mM glucos e, pH 7.5 i n the size exclusion chromatograph y. For the measurements, an approp riate volume o f the liposome stock solutions was diluted to 2m L in a 10× 10 mm PS cuvette wi th 10 mM Hep es bu ffer and 175 mM glucos e at pH 7.5 to afford 12.5µM POPC ⊃CX4/LCG-LUVs and 12.5 µM POPC⊃CF-LUVs (25 µM POPC total). The cuvette was placed into a thermostatted fluorimeter sample holder at 25.0 °C and gentl y stirred at 300 rpm. The fluorescence intensity w as simultaneous l y r eco rded in the CF chann el ( λ exc = 525 nm, λ em = 545 nm) and in the LCG channel ( λ exc = 369 nm, λ em = 475 nm) with an ex citation slit width of 5 nm and an emission slit width of 5 n m during addition of 20 µL peptide stock solution of varying concentrations at 60 s and 20 µL of a calibration

[3] = 25 µM lipid, EYPC⊃CF-LUVs, 10 mM Hepes, fractional activity at 590 s, Hill fit, error = SD of fit

SMILES	EC50, CF assay, EYPC [1, 3]	Y30µM, membrane activity, CF assay [1]	EC50 [2]	EC50 [1, 3]	EC50, dual-channel assay, CX4/LCG channel, POPC/POPS [2]
CC[C@H](C)[C@H](NC(=O)[C@H](CCCCN)NC(=O)[C@@H](NC(=O)[C@@H](N)CCC(N)=O)[C@@H](C)CC)C(=O)N[C@@H](Cc1c[nH]c2ccccc12)C(=O)N[C@@H](Cc1ccccc1)C(=O)N[C@@H](CCC(N)=O)C(=O)N[C@@H](CC(N)=O)C(=O)N[C@@H](CCCNC(=N)N)C(=O)N[C@@H](CCCNC(=N)N)C(=O)N[C@@H](CCSC)C(=O)N[C@@H](CCCCN)C(=O)N[C@@H](Cc1c[nH]c2ccccc12)C(=O)N[C@@H](CCCCN)C(=O)N[C@@H](CCCCN)C(=O)O (H-QIKIWFQNRRMKWKK-OH)	too low to determine	0.14	–	–	–
CC(C)C[C@H](NC(=O)[C@H](CC(C)C)NC(=O)[C@H](CCCNC(=N)N)NC(=O)[C@@H](N)CC(C)C)C(=O)N[C@@H](CCCNC(=N)N)C(=O)N[C@@H](Cc1c[nH]c2ccccc12)C(N)=O [LRLLRW] (H-LRLLRW-NH2)	–	0.23	9 ± 1.6 µM	–	–
CC(C)[C@H](NC(=O)[C@H](CCCCN)NC(=O)[C@H](CCCNC(=N)N)NC(=O)[C@H](CCCCN)NC(=O)[C@H](CCCCN)NC(=O)[C@H](CCCCN)NC(=O)[C@@H]1CCCN1C(=O)[C@H](CCC(N)=O)NC(=O)[C@H](CO)NC(=O)[C@H](Cc1c[nH]c2ccccc12)NC(=O)[C@H](CC(=O)O)NC(=O)[C@@H](NC(=O)[C@H](Cc1c[nH]c2ccccc12)NC(=O)[C@H](Cc1c[nH]c2ccccc12)NC(=O)[C@@H](NC(=O)[C@H](CC(=O)O)NC(=O)[C@H](Cc1c[nH]c2ccccc12)NC(=O)[C@H](Cc1c[nH]c2ccccc12)NC(=O)[C@@H](NC(=O)[C@H](CC(=O)O)NC(=O)[C@@H](N)CCCCN)[C@@H](C)O)[C@@H](C)O)[C@@H](C)O)C(=O)O [Pep‐1] (H-KDTWWDTWWTDWSQPKKKRKV-OH)	–	0.46	5.3 ± 0.66 µM	35 ± 1 µM	–
CC[C@H](C)[C@H](NC(=O)[C@H](CCCCN)NC(=O)[C@H](CCCCN)NC(=O)[C@H](C)NC(=O)[C@H](CC(C)C)NC(=O)[C@H](C)NC(=O)[C@H](C)NC(=O)[C@H](CC(C)C)NC(=O)[C@H](C)NC(=O)[C@H](CCCCN)NC(=O)[C@H](CC(C)C)NC(=O)[C@H](CC(N)=O)NC(=O)[C@@H](NC(=O)[C@H](CCCCN)NC(=O)CNC(=O)[C@H](CC(C)C)NC(=O)[C@H](CC(C)C)NC(=O)[C@H](Cc1ccc(O)cc1)NC(=O)CNC(=O)[C@H](C)N)[C@@H](C)CC)C(=O)N[C@@H](CC(C)C)C(=O)O [TP10]	–	–	0.076 ± 0.01 µM	–	enhanced
